Data from patent US10494611B2, “Compositions comprising a mitofusin inhibitor for promoting cell reprogramming and a use thereof” (KOREA RESEARCH INSTITUTE OF BIOSCIENCE AND BIOTECHNOLOGY, priority 2014, dated 2019).
“Also recorded” adds a separate entry of the source.

How the values were obtained:
mouse Mfn1 promoter = experiment: Mouse Mfn1 promoter reporter assay (luciferase), REDOX library screening; format: cell-based; conditions: Mfn1−/− MEFs carrying Mfn1 promoter reporter, 10 μM, 48 hours
Experimental: (§1) In one specific embodiment of the present invention, mouse and human Mfn1 promoter reporter (Genecopoeia) cells were prepared using Mfn1−/−MEFs and 293T cells, respectively, and a Screen-Well™ REDOX library containing the 84 compounds was treated at a concentration of 10 μM by for 48 hours.
(§2) Mfn1-KO MEFs were stably transfected with an Mfn1 promoter reporter construct (Genecopoeia) cells of mouse and human were produced using Mfn1−/− MEFs and 293T cells (human embryonic renal cells) and then treated with the Screen-Well™ REDOX library, containing 84 compounds, for 48 hours in a concentration of 10 nM to 10 μM. Mfn1 promoter activity was measured in the culture supernatants with the Secrete-Pair™ Dual Luminescence and Gaussia Luciferase Assay Kits (Genecopoeia) using a SpectraMax microplate reader.

human Mfn1 promoter = experiment: Human Mfn1 promoter reporter assay (luciferase) in 293T cells, REDOX library screening; format: cell-based; conditions: 293T cells with human Mfn1 promoter reporter, 10 μM, 48 hours
Experimental: as §1, §2

MEFs [1] = experiment: Reprogramming of MEFs by OSKM transduction, AP staining; format: cell-based, mouse
MEFs [2] = experiment: Mitochondrial morphology of reprogramming cultures (Mito-EYFP); format: cell-based, mouse; conditions: OSKM, 50 μM Mdivi1, Mito-EYFP, D7
Experimental: Cells were fixed in 4% paraformaldehyde for 10 minutes at room temperature (RT) and then in MeOH for 15 minutes at −20° C., after which their permeability was increased with 0.3% Triton X-100 in PBS for 30 min and blocked with 4% BSA for 2 hours at RT. The samples were stained with the anti-Tom20 antibody diluted in a blocking buffer at 4° C. overnight. After washing, the cells were stained with Alexa 488-conjugated secondary antibodies (Invitrogen) for 45 minutes at RT. The nuclei were counterstained with 10 μg/ml DAPI. For live cell imaging, the cells were incubated with 200 nM MitoTracker® Red CMXRos (Invitrogen) for 30 minutes at 37° C. Florescent images were analyzed under an IX51 microscope (Olympus) or an Axiovert 200M microscope (Carl Zeiss).

## CN(C/C=C/C#CC(C)(C)C)Cc1cccc2ccccc12.Cl [erbinafine.HCl]
Mouse Mfn1 promoter
  mouse Mfn1 promoter activity (relative luciferase activity): top 2 upregulated

## Cc1nc(C)c(C)nc1C [tetramethylpyrazine]
Mouse Mfn1 promoter
  mouse Mfn1 promoter activity (relative luciferase activity): top 3 downregulated
Mouse Mfn1 promoter; listed as tetramethyl pyrazine
  mouse Mfn1 promoter activity (relative luciferase activity): down-regulated

## CCCCCCCCCCCCCCCC(=O)OC/C=C(C)/C=C/C=C(C)/C=C/C1=C(C)CCCC1(C)C [retinyl palmitate]
Human Mfn1 promoter
  human Mfn1 promoter activity (relative luciferase activity): down-regulated; also recorded: best inhibit

## CC1=C(C)C(=O)C(CC[C@](C)(O)CCC[C@H](C)CCC[C@H](C)CCCC(C)C)=C(C)C1=O [D-α-tocopheryl quinone]
Human Mfn1 promoter
  human Mfn1 promoter activity (relative luciferase activity): down-regulated; also recorded: best inhibit

## O=CC[C@@H](O)[C@H](O)[C@H](O)CO [2-DG, 2-deoxy-D-glucose]
MEFs [1]; OSKM reprogramming of MEFs, D11
  cellular reprogramming (AP+ colonies) with glycolysis inhibitor: substantially decreased

## COc1cc(-n2c(=S)[nH]c3ccccc3c2=O)c(Cl)cc1Cl [Mdivi1]
MEFs [1]; OSKM, 50 μM Mdivi1, AP+ colonies D11
  higher reprogramming efficiency of Mfn1−/− and Mfn2−/− MEFs: blocked
MEFs [2]
  fragmented mitochondrial morphology of Mfn1−/− and Mfn2−/− MEFs: blocked

## Cc1coc2c1C(=O)C(=O)c1c-2ccc2c1CCCC2(C)C [Tanshinone IIA]
Mouse Mfn1 promoter
  mouse Mfn1 promoter activity (relative luciferase activity): top 2 upregulated

## C[C@]12C=CC(=O)C=C1CC[C@@H]1C2=CC[C@]2(C)[C@@H](C(=O)CN3CCN(c4cc(N5CCCC5)nc(N5CCCC5)n4)CC3)CC[C@@H]12.O=C(O)/C=C\C(=O)O [U74389G maleate, 21-[4-(2,6-di-1-pyrrolidinyl-4-pyrimidinyl)-1-piperazinyl]pregna-1,4,9[11]-triene-3,20-dione maleate]
Human Mfn1 promoter; maleate
  human Mfn1 promoter activity (relative luciferase activity): down-regulated; also recorded: best inhibit
Mouse Mfn1 promoter; listed as 21-[4-(2,6-di-1-pyrrolidinyl-4-pyrimidinyl)-1-piperazinyl]pregna-1,4,9[11]-trien, maleate
  mouse Mfn1 promoter activity (relative luciferase activity): top 3 downregulated
Mouse Mfn1 promoter; maleate
  mouse Mfn1 promoter activity (relative luciferase activity): down-regulated; also recorded: inhibited
